The assay deals with HCV 1b-377-neo replicon cells. The assay is described as follows: HCV replicon assay, HCV 1b-377-neo replicon cells (1b FRET). The format is cell-based, Hepatitis C virus genotype 1b. Conditions: Hepatitis C virus, HCV 1b-377-neo replicon cells; HCV 1b genotype; read-out: EC50 range against HCV 1b (Table 2, Range). The method, boiled down: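 Compounds tested in HCV genotype 1b-377-neo replicon cells with a FRET read-out. Cells resistant to a reference NS5A inhibitor through a Y2065H NS5A mutation were run alongside wild-type cells.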
With `COC(=O)N[C@H](C(=O)N1CC[C@@H](O)[C@H]1c1ncc(-c2ccc(-c3ccc(-c4cnc([C@@H]5CCCN5C(=O)[C@@H](NC(=O)OC)C(C)C)[nH]4)cc3)cc2)[nH]1)C(C)C` [OL-21, methyl ((1S)-1-(((2R)-3-hydroxy-2-(4-(4′-(2-((2S)-1-((2S)-2-((methoxycarbonyl)amino)-3-methylbutanoyl)-2-pyrrolidinyl)-1H-imidazol-4-yl)-4-biphenylyl)-1H-imidazol-2-yl)-1-pyrrolidinyl)carbonyl)-2-methylpropyl)carbamate], the EC50 lay within 0.001 to 0.999 nM.

Consider `COC(=O)N[C@H](C(=O)N1CCC[C@H]1c1ncc(-c2ccc(-c3ccc(-c4cnc([C@@H]5CCCN5C(=O)[C@@H](Nc5ncccn5)C(C)C)[nH]4)cc3)cc2)[nH]1)C(C)C` [cj-11, methyl ((1S)-2-methyl-1-(((2S)-2-(5-(4′-(2-((2S)-1-(N-2-pyrimidinyl-L-valyl)-2-pyrrolidinyl)-1H-imidazol-5-yl)-4-biphenylyl)-1H-imidazol-2-yl)-1-pyrrolidinyl)carbonyl)propyl)carbamate], for which the EC50 fell in the range of 0.001 to 0.999 nM.

With `COC(=O)N[C@@H](C)C(=O)N1CCC[C@H]1c1ncc(-c2ccc(-c3ccc(-c4cnc([C@@H]5CCCN5C(=O)[C@@H](Nc5ncccn5)C(C)C)[nH]4)cc3)cc2)[nH]1` [cj-11a, methyl ((1S)-1-methyl-2-oxo-2-((2S)-2-(5-(4′-(2-((2S)-1-(N-2-pyrimidinyl-L-valyl)-2-pyrrolidinyl)-1H-imidazol-5-yl)-4-biphenylyl)-1H-imidazol-2-yl)-1-pyrrolidinyl)ethyl)carbamate], the EC50 was 0.001 to 0.999 nM.

Consider `COC(=O)N[C@@H](C(=O)N1CCC[C@H]1c1ncc(-c2ccc(-c3ccc(-c4cnc([C@@H]5CCCN5C(=O)[C@@H](Nc5ncccn5)C(C)C)[nH]4)cc3)cc2)[nH]1)c1ccccc1` [cj-11b, methyl ((1R)-2-oxo-1-phenyl-2-((2S)-2-(5-(4′-(2-((2S)-1-(N-2-pyrimidinyl-L-valyl)-2-pyrrolidinyl)-1H-imidazol-5-yl)-4-biphenylyl)-1H-imidazol-2-yl)-1-pyrrolidinyl)ethyl)carbamate], for which the EC50 was in the range of 0.001 to 0.999 nM.

Take `CCN(CC)[C@@H](C(=O)N1CCC[C@H]1c1ncc(-c2ccc(-c3ccc(-c4cnc([C@@H]5CCCN5C(=O)[C@@H](Nc5ncccn5)C(C)C)[nH]4)cc3)cc2)[nH]1)c1ccccc1` [cj-11c, N-((1S)-1-(((2S)-2-(5-(4′-(2-((2S)-1-((2R)-2-(diethylamino)-2-phenylacetyl)-2-pyrrolidinyl)-1H-imidazol-5-yl)-4-biphenylyl)-1H-imidazol-2-yl)-1-pyrrolidinyl)carbonyl)-2-methylpropyl)-2-pyrimidinamine]: the EC50 lay in the range of 0.001 to 0.999 nM.

For `COC(=O)N[C@H](C(=O)N1CCC[C@H]1c1ncc(-c2ccc(-c3ccc(-c4cnc([C@@H]5CCCN5C(=O)[C@@H](NC5=NCCN5C)C(C)C)[nH]4)cc3)cc2)[nH]1)C(C)C` [cj-11d, methyl ((1S)-2-methyl-1-(((2S)-2-(5-(4′-(2-((2S)-1-(N-(1-methyl-4,5-dihydro-1H-imidazol-2-yl)-L-valyl)-2-pyrrolidinyl)-1H-imidazol-5-yl)-4-biphenylyl)-1H-imidazol-2-yl)-1-pyrrolidinyl)carbonyl)propyl)carbamate], the EC50 fell in the range of 0.001 to 0.999 nM.

For the compound `COC(=O)N[C@H](C(=O)N1CCC[C@H]1c1ncc(-c2ccc(-c3ccc(-c4cnc([C@@H]5CCCN5C(=O)[C@@H](NC5=NCCN5)C(C)C)[nH]4)cc3)cc2)[nH]1)C(C)C` [cj-11e, methyl ((1S)-1-(((2S)-2-(5-(4′-(2-((2S)-1-(N-(4,5-dihydro-1H-imidazol-2-yl)-L-valyl)-2-pyrrolidinyl)-1H-imidazol-5-yl)-4-biphenylyl)-1H-imidazol-2-yl)-1-pyrrolidinyl)carbonyl)-2-methylpropyl)carbamate], the EC50 lay in the range of 1000 to 10000 nM.

As for `COC(=O)N[C@@H](C)C(=O)N1CCC[C@H]1c1ncc(-c2ccc(-c3ccc(-c4cnc([C@@H]5CCCN5C(=O)[C@@H](NC5=NCCN5)C(C)C)[nH]4)cc3)cc2)[nH]1` [cj-11f, methyl ((1S)-2-((2S)-2-(5-(4′-(2-((2S)-1-(N-(4,5-dihydro-1H-imidazol-2-yl)-L-valyl)-2-pyrrolidinyl)-1H-imidazol-5-yl)-4-biphenylyl)-1H-imidazol-2-yl)-1-pyrrolidinyl)-1-methyl-2-oxoethyl)carbamate], the EC50 lay in the range of 1 to 99 nM.

Consider `CCN(CC)[C@@H](C(=O)N1CCC[C@H]1c1ncc(-c2ccc(-c3ccc(-c4cnc([C@@H]5CCCN5C(=O)[C@@H](NC5=NCCN5)C(C)C)[nH]4)cc3)cc2)[nH]1)c1ccccc1` [cj-11g, N-((1S)-1-(((2S)-2-(5-(4′-(2-((2S)-1-((2R)-2-(diethylamino)-2-phenylacetyl)-2-pyrrolidinyl)-1H-imidazol-5-yl)-4-biphenylyl)-1H-imidazol-2-yl)-1-pyrrolidinyl)carbonyl)-2-methylpropyl)-4,5-dihydro-1H-imidazol-2-amine], for which the EC50 was in the range of 1 to 99 nM.

On to `COC(=O)N[C@H](C(=O)N1CCC[C@H]1c1ncc(-c2ccc(-c3ccc(-c4cnc([C@@H]5CCCN5C(=O)[C@H](Nc5ncccn5)C(C)C)[nH]4)cc3)cc2)[nH]1)C(C)C` [cj-11i, methyl ((1S)-2-methyl-1-(((2S)-2-(5-(4′-(2-((2S)-1-(N-2-pyrimidinyl-D-valyl)-2-pyrrolidinyl)-1H-imidazol-5-yl)-4-biphenylyl)-1H-imidazol-2-yl)-1-pyrrolidinyl)carbonyl)propyl)carbamate], for which the concentration giving a half-maximal response (EC50) lay in the range of 0.001 to 0.999 nM.

Consider `COC(=O)N[C@@H](C)C(=O)N1CCC[C@H]1c1ncc(-c2ccc(-c3ccc(-c4cnc([C@@H]5CCCN5C(=O)[C@H](Nc5ncccn5)C(C)C)[nH]4)cc3)cc2)[nH]1` [cj-11j, methyl ((1S)-1-methyl-2-oxo-2-((2S)-2-(5-(4′-(2-((2S)-1-(N-2-pyrimidinyl-D-valyl)-2-pyrrolidinyl)-1H-imidazol-5-yl)-4-biphenylyl)-1H-imidazol-2-yl)-1-pyrrolidinyl)ethyl)carbamate], for which the EC50 lay within 0.001 to 0.999 nM.

Regarding `CCN(CC)[C@@H](C(=O)N1CCC[C@H]1c1ncc(-c2ccc(-c3ccc(-c4cnc([C@@H]5CCCN5C(=O)[C@H](Nc5ncccn5)C(C)C)[nH]4)cc3)cc2)[nH]1)c1ccccc1` [cj-11k, N-((1R)-1-(((2S)-2-(5-(4′-(2-((2S)-1-((2R)-2-(diethylamino)-2-phenylacetyl)-2-pyrrolidinyl)-1H-imidazol-5-yl)-4-biphenylyl)-1H-imidazol-2-yl)-1-pyrrolidinyl)carbonyl)-2-methylpropyl)-2-pyrimidinamine], the EC50 lay in the range of 0.001 to 0.999 nM.

For the compound `COC(=O)N[C@H](C(=O)N1CCC[C@H]1c1ncc(-c2ccc(-c3ccc(-c4cnc([C@@H]5CCCN5C(=O)[C@H](NC5=NCCN5C)C(C)C)[nH]4)cc3)cc2)[nH]1)C(C)C` [cj-11m, methyl ((1S)-2-methyl-1-(((2S)-2-(5-(4′-(2-((2S)-1-(N-(1-methyl-4,5-dihydro-1H-imidazol-2-yl)-D-valyl)-2-pyrrolidinyl)-1H-imidazol-5-yl)-4-biphenylyl)-1H-imidazol-2-yl)-1-pyrrolidinyl)carbonyl)propyl)carbamate], the EC50 lay within 1 to 99 nM.

On to `COC(=O)N[C@H](C(=O)N1CCC[C@H]1c1ncc(-c2ccc(-c3ccc(-c4cnc([C@@H]5CCCN5C(=O)[C@H](NC5=NCCN5)C(C)C)[nH]4)cc3)cc2)[nH]1)C(C)C` [cj-11n, methyl ((1S)-1-(((2S)-2-(5-(4′-(2-((2S)-1-(N-(4,5-dihydro-1H-imidazol-2-yl)-D-valyl)-2-pyrrolidinyl)-1H-imidazol-5-yl)-4-biphenylyl)-1H-imidazol-2-yl)-1-pyrrolidinyl)carbonyl)-2-methylpropyl)carbamate], for which the EC50 was in the range of 1 to 99 nM.

`COC(=O)N[C@H](C(=O)N1CCC[C@H]1c1ncc(-c2ccc(-c3ccc(-c4cnc([C@@H]5CCCN5C(=O)[C@H](NC5=NCCN5)C(C)C)[nH]4)cc3)cc2)[nH]1)C1CC1` [cj-11o, methyl ((1S)-1-cyclopropyl-2-((2S)-2-(5-(4′-(2-((2S)-1-(N-(4,5-dihydro-1H-imidazol-2-yl)-D-valyl)-2-pyrrolidinyl)-1H-imidazol-5-yl)-4-biphenylyl)-1H-imidazol-2-yl)-1-pyrrolidinyl)-2-oxoethyl)carbamate]: the EC50 is 1 to 99 nM.

For `CCN(CC)[C@@H](C(=O)N1CCC[C@H]1c1ncc(-c2ccc(-c3ccc(-c4cnc([C@@H]5CCCN5C(=O)[C@H](NC5=NCCN5)C(C)C)[nH]4)cc3)cc2)[nH]1)c1ccccc1` [cj-11p, N-((1R)-1-(((2S)-2-(5-(4′-(2-((2S)-1-((2R)-2-(diethylamino)-2-phenylacetyl)-2-pyrrolidinyl)-1H-imidazol-5-yl)-4-biphenylyl)-1H-imidazol-2-yl)-1-pyrrolidinyl)carbonyl)-2-methylpropyl)-4,5-dihydro-1H-imidazol-2-amine], the EC50 was 0.001 to 0.999 nM.

Regarding `COC(=O)N[C@H](C(=O)N1CCC[C@H]1c1ncc(-c2ccc(-c3ccc(-c4cnc([C@@H]5CCCN5C(=O)[C@@H](NC5=NCCS5)C(C)C)[nH]4)cc3)cc2)[nH]1)C(C)C` [cj-15c, methyl ((1S)-1-(((2S)-2-(5-(4′-(2-((2S)-1-(N-(4,5-dihydro-1,3-thiazol-2-yl)-L-valyl)-2-pyrrolidinyl)-1H-imidazol-5-yl)-4-biphenylyl)-1H-imidazol-2-yl)-1-pyrrolidinyl)carbonyl)-2-methylpropyl)carbamate], the EC50 is 0.001 to 0.999 nM.

With `COC(=O)N[C@H](C(=O)N1CCC[C@H]1c1ncc(-c2ccc(-c3ccc(-c4cnc([C@@H]5CCCN5C(=O)[C@@H](Nc5ccncn5)C(C)C)[nH]4)cc3)cc2)[nH]1)C(C)C` [cj-15d, methyl ((1S)-2-methyl-1-(((2S)-2-(5-(4′-(2-((2S)-1-(N-4-pyrimidinyl-L-valyl)-2-pyrrolidinyl)-1H-imidazol-5-yl)-4-biphenylyl)-1H-imidazol-2-yl)-1-pyrrolidinyl)carbonyl)propyl)carbamate], the concentration for a half-maximal effect (EC50) fell in the range of 0.001 to 0.999 nM.

The term EC50 denotes the concentration that produces a half-maximal response.

For the origin of these results see patent publication US8574563B2 (Bristol-Myers Squibb Company, priority 2006, dated 2013).
